The structures appear in SMILES notation. pIC50: −log10 of the molar value.

One data set deals with H1975. The experiment in a line: Inhibition assay on tumor cell proliferation (CellTiter-Glo), H1975. The format is cell-based, Human. As to conditions: Homo sapiens, NCI-H1975; H1975 (L858R and T790M EGFR double mutation), 72 hours, 10% bovine serum.
In a further data set the test system is H358. Kind of data set: Inhibition assay on tumor cell proliferation (CellTiter-Glo), H358. The format is cell-based, Human. As to conditions: Homo sapiens, NCI-H358; H358 (wild-type EGFR), 72 hours, 10% bovine serum. As for the experimental part: By using a CellTiter-Glo luminescence cell viability test kit (Promega, # G7572), the content of adenosine triphosphate (ATP) was determined to assess the cell viability.
Human colon cancer cell line LOVO and human non-small-cell lung cancer H358 express wild-type EGFR. Human non-small-cell lung cancer cell line HCC827 carries deletion mutation in exon 19 (ex19del). Those cell lines are purchased from Shanghai Fudan IBS Cell Resource Center and American Tissue Culture Collection (ATCC).
The assay procedure is as follows. The cells in a cell culture plate were digested with a pancreatic enzyme, re-suspended in a DPBS culture medium, and had the cell density counted by Scepter automated cytometer (Millipore # PHCC00000). The cells were diluted to a solution of 44,000 cells per ml. The cell solution with adjusted density was added to the cell assay plate at 90 microliters per well. The plate was placed in an incubator with 5% CO2 at 37° C. for 24 hours of incubation, and then added with different concentrations of subject compounds. The cells were incubated for 72 hours with the compounds in presence of 10% bovine serum. The content of ATP was determined by a CellTiter-Glo® Luminescent Cell Viability Assay kit (see the manufacturer's instruction for details) to evaluate cell-growth inhibition.
Briefly, 30 μl of CellTiter-Glo® reagent was added to each well, and then shaken for 10 minutes to induce cell lysis. The fluorescent signal was detected and recorded by Fluoroskan Ascent FL (Thermo). The max signal value was obtained from the cells treated by dimethyl sulfoxide for 72 hours. The min signal value was obtained from the medium alone (the number of the cells was 0). Inhibitory rate %=(max signal value−compound signal value)/(max signal value−min signal value)×100. The data was processed by GraphPad Prism V5.0 software (GraphPad Software, San Diego, Calif.). Sigmoidal dose-response curve fitting was performed to calculate the IC50 value.

The target in the next data set is T1, EGFR T790M/L858R (Homo sapiens, UniProt P00533, L858R/T790M).
T1 construct: purchased Invitrogen PR8911A
T1 sequence (P00533 25-1210 T790M/L858R): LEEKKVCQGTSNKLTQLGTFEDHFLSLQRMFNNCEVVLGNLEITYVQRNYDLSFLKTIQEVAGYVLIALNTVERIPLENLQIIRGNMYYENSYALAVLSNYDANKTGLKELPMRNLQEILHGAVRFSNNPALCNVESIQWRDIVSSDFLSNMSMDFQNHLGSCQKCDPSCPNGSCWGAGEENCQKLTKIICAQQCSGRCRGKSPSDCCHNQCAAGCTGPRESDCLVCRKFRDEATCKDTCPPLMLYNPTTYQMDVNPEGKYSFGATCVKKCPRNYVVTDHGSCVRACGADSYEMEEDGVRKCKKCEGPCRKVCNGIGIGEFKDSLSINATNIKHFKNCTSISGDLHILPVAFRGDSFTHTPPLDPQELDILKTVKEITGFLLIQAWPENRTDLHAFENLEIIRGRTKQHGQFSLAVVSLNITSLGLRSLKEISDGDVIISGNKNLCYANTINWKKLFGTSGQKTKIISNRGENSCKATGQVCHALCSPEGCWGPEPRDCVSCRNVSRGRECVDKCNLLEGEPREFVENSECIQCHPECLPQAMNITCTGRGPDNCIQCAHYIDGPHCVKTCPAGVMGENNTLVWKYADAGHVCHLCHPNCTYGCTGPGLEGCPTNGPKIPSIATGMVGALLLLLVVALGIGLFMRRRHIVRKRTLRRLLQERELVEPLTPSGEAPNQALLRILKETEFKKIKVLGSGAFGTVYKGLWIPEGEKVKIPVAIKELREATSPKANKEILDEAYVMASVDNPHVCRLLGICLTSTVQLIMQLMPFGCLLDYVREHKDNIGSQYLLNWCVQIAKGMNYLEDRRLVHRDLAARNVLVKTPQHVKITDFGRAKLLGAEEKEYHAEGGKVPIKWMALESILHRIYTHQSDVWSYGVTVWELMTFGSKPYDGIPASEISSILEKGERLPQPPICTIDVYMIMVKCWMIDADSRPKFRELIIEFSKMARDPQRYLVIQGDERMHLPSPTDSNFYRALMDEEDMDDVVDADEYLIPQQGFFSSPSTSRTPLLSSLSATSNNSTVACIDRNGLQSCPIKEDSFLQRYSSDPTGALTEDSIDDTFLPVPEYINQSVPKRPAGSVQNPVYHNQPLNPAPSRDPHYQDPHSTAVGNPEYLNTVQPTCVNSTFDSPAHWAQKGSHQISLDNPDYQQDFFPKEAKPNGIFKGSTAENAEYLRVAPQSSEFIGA
The experiment in a line: Mutant EGFR T790M/L858R activity inhibition assay (Caliper mobility shift). The format is biochemical. Conditions: read-out: enzyme activity inhibition (IC50) EGFR T790M/L858R. Here is the method: The assay procedure is as follows. […] 5 μl of the compound dissolved in 10% DMSO at a concentration of 5-fold of the final reaction concentration was added to a 384 well plate. 5 μl of 10% DMSO was used in a no-compound control well, while 5 μl of a kinase buffer was used in a no-enzyme activity control well. […] The conversion rate was read on Caliper EZ Reader II (Caliper Life Sciences). The conversion rate was then converted to inhibitory rate.
As used herein, “max” refers to the conversion rate of the DMSO no-compound control well, and “min” refers to the conversion rate of the no-enzyme activity control well. A curve was obtained by plotting the inhibitory rate as a function of the compound concentration. The XLFit excel add-in version 4.3.1 software was used to fit the curve and calculate the IC50. Inhibitory rate %=(max−conversion rate)/(max−min)×100.

As to `C=CC(=O)Nc1cc(Nc2nccc(-n3c(=O)n(C(C)C)c4ccccc43)n2)ccc1N(C)CCN(C)C` [Compound 128, N-(2-((2-(dimethylamino)ethyl)(methyl)amino)-5-((4-(3-isopropyl-2-oxo-2,3-dihydro-1H-benzo[d]imidazol-1-yl)pyrimidin-2-yl)amino)phenyl)acrylamide], the melting point lay within 85 to 90 °C. The same compound showed a pIC50 with H1975 of over 8.00. For the same compound, the pIC50 in the data set with H358 is 6.00 to 7.00. The pIC50 on EGFR T790M/L858R is over 9.00.

With `COC/C=C/C(=O)Nc1cc(Nc2nccc(-n3ccc4ccccc43)n2)c(OC)cc1N(C)CCN(C)C` [Compound 71], the pIC50 at EGFR T790M/L858R is 8.00 to 9.00.

`C=CC(=O)Nc1cc(Nc2nccc(-n3ccc4ccccc43)n2)c(OC)cc1N(C)CCN1CCCCC1` [Compound 81, N-(5-(4-(1H-indol-1-yl)pyrimidin-2-ylamino)-4-methoxy-2-(methyl(2-(piperidin-1-yl)ethyl)amino)phenyl)acrylamide] came in with a melting point of 131 to 136 °C. At EGFR T790M/L858R, the pIC50 is 8.00 to 9.00.

For `C=CC(=O)Nc1cc(Nc2nccc(-n3ccc4ccccc43)n2)c(OC)cc1N1CCN(C)CC1` [Compound 84, N-(5-((4-(1H-indol-1-yl)pyrimidin-2-yl)amino)-4-methoxy-2-(4-methylpiperazin-1-yl)phenyl)acrylamide], the melting point was 204 to 205 °C. Also, on EGFR T790M/L858R, the pIC50 is 7.30 to 8.00.

The compound `C=CC(=O)Nc1cc(Nc2ncc(OC)c(-n3c(=O)n(C(C)C)c4ccccc43)n2)c(OC)cc1N(C)CCN(C)C` [Compound 133, N-(2-((2-(dimethylamino)ethyl) (methyl)amino)-5-((4-(3-isopropyl-2-oxo-2,3-dihydro-1H-benzo[d]imidazol-1-yl)-5-methoxypyrimidin-2-yl)amino)-4-methoxyphenyl)acrylamide] registered a melting point of 92 to 95 °C. In addition, the pIC50 with H1975 was over 8.00. The same compound had a pIC50 with H358 of under 6.00. Moreover, the pIC50 at EGFR T790M/L858R was 8.00 to 9.00.

The compound `CC/C=C/C(=O)Nc1cc(Nc2nccc(-n3ccc4ccccc43)n2)c(OC)cc1N(C)CCN(C)C` [Compound 67, (E)-N-(5-((4-(1H-indol-1-yl)pyrimidin-2-yl)amino)-2-((2-(dimethylamino)ethyl)(methyl)amino)-4-methoxyphenyl)pent-2-enamide] gave a melting point of 124.3 to 126.2 °C. Also, the pIC50 on EGFR T790M/L858R is 7.00 to 7.30.

`C=C(C)C(=O)Nc1cc(Nc2nccc(-n3ccc4ccccc43)n2)c(OC)cc1N(C)CCN(C)C` [Compound 68, N-(5-((4-(1H-indol-1-yl)pyrimidin-2-yl)amino)-2-((2-(dimethylamino)ethyl)(methyl)amino)-4-methoxyphenyl)methacryl amide] registered a melting point of 145.7 to 147.1 °C. The pIC50 at EGFR T790M/L858R is 7.30 to 8.00.

For the compound `C/C=C/C(=O)Nc1cc(Nc2nccc(-n3ccc4ccccc43)n2)c(OC)cc1N(C)CCN(C)C` [Compound 66, (E)-N-(5-((4-(1H-indol-1-yl)pyrimidin-2-yl)amino)-2-((2-(dimethylamino)ethyl)(methyl)amino)-4-methoxyphenyl)but-2-enamide], the melting point was in the range of 150.2 to 152.8 °C. Moreover, the pIC50 at EGFR T790M/L858R is 7.30 to 8.00.

`C=CC(=O)Nc1cc(Nc2nccc(-n3c(=O)n(C4CC4)c4cc(F)ccc43)n2)c(OC)cc1N(C)CCN(C)C` [Compound 98, N-(5-(4-(3-cyclopropyl-5-fluoro-2-oxo-2,3-dihydrobenzo[d]imidazol-1-yl)pyrimidin-2-ylamino)-2-((2-(dimethylamino)ethyl)(methyl)amino)-4-methoxyphenyl)acrylamide] gave a melting point of 181 to 184 °C. This compound also showed a pIC50 in the data set with H1975 of over 8.00. The compound also showed a pIC50 in the data set on H358 of 6.00 to 7.00. The pIC50 on EGFR T790M/L858R was over 9.00.

For `C=CC(=O)Nc1cc(Nc2nccc(-n3c(=O)n(C)c4ccccc43)n2)c(OCCOC)cc1N(C)CCN(C)C` [Compound 120, N-{2-[(2-dimethylamino-ethyl)-methyl-amino]-4-(2-methoxy-ethoxy)-5-[4-(3-methyl-2-oxo-2,3-dihydro-benzoimidazol-1-yl)-pyrimidin-2-ylamino]-phenyl}-acrylamide], the melting point was 71 to 78 °C. The pIC50 on EGFR T790M/L858R is 8.00 to 9.00.

In turn, `C=CC(=O)Nc1cc(Nc2ncc(NC)c(-n3ccc4ccccc43)n2)c(OC)cc1N(C)CCN(C)C` [Compound 11, N-(5-(4-(1H-indol-1-yl)-5-(methylamino)pyrimidin-2-ylamino)-2-((2-(dimethylamino)ethyl)(methyl)amino)-4-methoxyphenyl)acrylamide] registered a melting point of 154 to 156 °C. Further, at EGFR T790M/L858R, the pIC50 was 8.00 to 9.00.

As to `C=CC(=O)Nc1cc(Nc2nccc(-n3ccc4ccccc43)n2)c(OC)cc1N(C)CCN1CCOCC1` [Compound 82, N-{5-(4-indol-1-yl-pyrimidin-2-ylamino)-4-methoxy-2-[methyl-(2-morpholin-4-yl-ethyl)-amino]-phenyl}-acryl amide], the pIC50 with H1975 was 7.00 to 7.30; in the data set with H358 it was under 6.00; on EGFR T790M/L858R it was 8.00 to 9.00.

`C=CC(=O)Nc1cc(Nc2nccc(-n3c(=O)n(CC4CC4)c4ccccc43)n2)c(OC)cc1N(C)CCN(C)C` [Compound 63, N-(5-((4-(3-(cyclopropylmethyl)-2-oxo-2,3-dihydro-1H-benzo[d]imidazol-1-yl)pyrimidin-2-yl)amino)-2-((2-(dimethylamino)ethyl)(methyl)amino)-4-methoxyphenyl)acrylamide] gave a melting point of 68 to 72 °C. The pIC50 with H1975 is over 8.00. The pIC50 in the data set on H358 was under 6.00. For the same compound, the pIC50 on EGFR T790M/L858R was over 9.00.

Consider `C=CC(=O)Nc1cc(Nc2nccc(-n3c(=O)n(C(C)C)c4cc(O)ccc43)n2)c(OC)cc1N(C)CCN(C)C` [Compound 139, N-(2-((2-(dimethylamino)ethyl)(methyl)amino)-5-((4-(5-hydroxy-3-isopropyl-2-oxo-2,3-dihydro-1H-benzo[d]imidazol-1-yl)pyrimidin-2-yl)amino)-4-methoxyphenyl)acrylamide], for which the melting point was in the range of 115 to 117 °C. In the data set with H1975, this compound gave a pIC50 of over 8.00. The compound also gave a pIC50 in the data set with H358 of 6.00 to 7.00. For the same compound, at EGFR T790M/L858R, the pIC50 is over 9.00.

The compound `CCC#CC(=O)Nc1cc(Nc2nccc(-n3ccc4ccccc43)n2)c(OC)cc1N(C)CCN(C)C` [Compound 74, N-(5-((4-(1H-indol-1-yl)pyrimidin-2-yl)amino)-2-((2-(dimethylamino)ethyl)(methyl)amino)-4-methoxyphenyl)pent-2-ynamide] yielded a melting point of 149.4 to 151.7 °C. In addition, on EGFR T790M/L858R, the pIC50 is 8.00 to 9.00.

In turn, `C=CC(=O)Nc1cc(Nc2nccc(-n3c(=O)n(C4CC4)c4cc(Cl)ccc43)n2)c(OC)cc1N(C)CCN(C)C` [Compound 99, N-(5-((4-(5-chloro-3-cyclopropyl-2-oxo-2,3-dihydro-1H-benzo[d]imidazol-1-yl)pyrimidin-2-yl)amino)-2-((2-(dimethylamino)ethyl)(methyl)amino)-4-methoxyphenyl)acrylamide] came in with a melting point of 124 to 126 °C. In the data set on H1975, this compound gave a pIC50 of over 8.00. In the data set with H358, the pIC50 was 6.00 to 7.00. On EGFR T790M/L858R, the pIC50 is 8.00 to 9.00.

With `C=CC(=O)Nc1cc(Nc2nccc(-n3c(=O)n(C)c4ccccc43)n2)c(C(C)C)cc1N(C)CCN(C)C` [Compound 132, N-(2-((2-(dimethylamino)ethyl)(methyl)amino)-4-isopropyl-5-((4-(3-methyl-2-oxo-2,3-dihydro-1H-benzo[d]imidazol-1-yl)pyrimidin-2-yl)amino)phenyl)acrylamide], the values for the pIC50 with H1975, in the data set with H358 and on EGFR T790M/L858R were over 8.00, under 6.00 and 8.00 to 9.00, respectively.

As to `C=CC(=O)Nc1cc(Nc2nccc(-n3c(=O)n(CC4CC4)c4cc(F)ccc43)n2)c(OC)cc1N(C)CCN(C)C` [Compound 105, N-(5-(4-(3-(cyclopropylmethyl)-5-fluoro-2-oxo-2,3-dihydro-1H-benzo[d]imidazol-1-yl)pyrimidin-2-ylamino)-2-((2-(dimethylamino)ethyl)(methyl)amino)-4-methoxyphenyl)acrylamide], the figures for the pIC50 in the data set on H1975, in the data set on H358 and at EGFR T790M/L858R were over 8.00, 6.00 to 7.00 and over 9.00, respectively.

The values are drawn from patent US11267802B2 (BEBETTER MED INC., priority 2015, dated 2022).
